Read-outs that look alike come from different tables or passages of the source.
Key:
[1] = target: T1, human cathepsin L (Homo sapiens, UniProt P07711); experiment: Cathepsin L assay (Z-FR-AMC fluorescence); format: biochemical; details: 10 pM human cathepsin L, 30 mins preincubation, Z-FR-AMC 2 μM
T1 construct: purchased R&D Systems
Experimental: For the cathepsin L assay, 10 pM of human cathepsin L (R&D Systems; Minneapolis, MN) was preincubated for 30 mins with test compounds. Reactions were initiated by the addition of a peptide substrate Z—FR-AMC (final concentration 2 μM, Anaspec; Fremont, CA). Fluorescence was measured at 2-minute intervals for 30 mins using a 355/460 excitation/emission filter module on an Envision plate reader (Perkin Elmer; Waltham, MA). The IC50 values were calculated for each assay by fitting the curves using a four-parameter equation in GraphPad Prism.

[2] = system: human beta-coronavirus OC43; experiment: OC43 coronavirus antiviral assay in HeLa cells (cytopathic effect, cell-titer-glo); format: cell-based; details: Betacoronavirus 1, OC43, HeLa, 144 h, 6 days at 33° C.
[3] = target: T2, SARS-Cov-2 3CLpro (Severe acute respiratory syndrome coronavirus 2, UniProt P0DTD1); experiment: biochemical; details: 3CLpro, 30 mins preincubation, SAMDI-MS; read-out: SARS-Cov-2 IC50 (class)
T2 construct: 3CLpro and HRV3C was added using a Multidrop Combi

[4] = target: T3, HRV3C (Human rhinovirus 14, UniProt P03303); experiment: biochemical; parameters: species or system HRV; details: HRV3C, 30 mins preincubation, SAMDI-MS; read-out: HRV IC50 (bound)
T3 construct: 3CLpro and HRV3C was added using a Multidrop Combi

[5] = system: B.1.1.7 lineage SARS-CoV-2; experiment: microbe, parasite or virus in culture; format: cell-based; details: Severe acute respiratory syndrome coronavirus 2, 96 h, read-out: A549-dual_ACE2_TMPRSS2 (EC50)

T1 sequence (P07711 114-333): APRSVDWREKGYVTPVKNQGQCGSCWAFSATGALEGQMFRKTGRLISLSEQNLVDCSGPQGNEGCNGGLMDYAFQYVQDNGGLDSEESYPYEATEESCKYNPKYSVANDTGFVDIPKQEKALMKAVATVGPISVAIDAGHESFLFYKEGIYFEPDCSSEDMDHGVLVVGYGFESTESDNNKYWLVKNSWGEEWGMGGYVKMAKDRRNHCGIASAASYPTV
T3 sequence (P03303 1538-1719): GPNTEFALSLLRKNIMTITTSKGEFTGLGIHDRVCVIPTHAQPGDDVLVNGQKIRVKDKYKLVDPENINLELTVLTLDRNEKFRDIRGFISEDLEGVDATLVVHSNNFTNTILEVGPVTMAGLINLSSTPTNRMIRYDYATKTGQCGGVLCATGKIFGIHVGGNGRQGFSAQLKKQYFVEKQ

`CC(C)(C)[C@H](NC(=O)C1(F)CC1)C(=O)N1C[C@@H]2[C@@H]3CC[C@@H](C3)[C@@H]2[C@H]1C(=O)N[C@H](C#N)C[C@@H]1CCNC1=O` [Compound 64, (1S,2S,3S,6R,7R)—N-[(1S)-1-cyano-2-[(3S)-2-oxopyrrolidin-3-yl]ethyl]-4-[(2S)-2-[(1-fluorocyclopropyl)formamido]-3,3-dimethylbutanoyl]-4-azatricyclo[5.2.1.0^{2,6}]decane-3-carboxamide] was tested, and the IC50 [1] was ≥ 10000 nM, the EC50 ([2]; read-out: EC50 (class)) was < 100 nM and the IC50 [3] was < 20 nM. The IC50 [4] was > 10000 nM and the EC50 [5] was < 100 nM.
For `CC(C)(C)[C@H](NC(=O)C1(F)CCC1)C(=O)N1C[C@H]2[C@@H]([C@H]1C(=O)N[C@H](C#N)C[C@@H]1CCNC1=O)[C@H]1C=C[C@@H]2C1` [Compound 65, (1S,3aR,4S,7R,7aS)-N-((S)-1-cyano-2-((S)-2-oxopyrrolidin-3-yl)ethyl)-2-((S)-2-(1-fluorocyclobutane-1-carboxamido)-3,3-dimethylbutanoyl)-2,3,3a,4,7,7a-hexahydro-1H-4,7-methanoisoindole-1-carboxamide], the IC50 [1] was ≥ 10000 nM, the EC50 ([2]; read-out: EC50 (class)) was < 100 nM and the IC50 [3] was < 20 nM. For the same compound, the IC50 [4] was > 10000 nM and the EC50 [5] was < 100 nM.
For `CC(C)(C)[C@H](NC(=O)C12CC(C1)C2)C(=O)N1C[C@H]2[C@@H]([C@H]1C(=O)N[C@H](C#N)C[C@@H]1CCNC1=O)[C@H]1C=C[C@@H]2C1` [Compound 66, (1S,3aR,4S,7R,7aS)-2-((S)-2-(bicyclo[1.1.1]pentane-1-carboxamido)-3,3-dimethylbutanoyl)-N-((S)-1-cyano-2-((S)-2-oxopyrrolidin-3-yl)ethyl)-2,3,3a,4,7,7a-hexahydro-1H-4,7-methanoisoindole-1-carboxamide], the IC50 [1] was ≥ 10000 nM, the EC50 ([2]; read-out: EC50 (class)) was 100 to 1000 nM and the IC50 [3] was < 20 nM. For the same compound, the IC50 [4] was > 10000 nM and the EC50 [5] was 100 to 1000 nM.
In the case of `CC(C)(C)[C@H](NC(=O)C(F)(Cl)Cl)C(=O)N1C[C@@H]2[C@@H]3CC[C@@H](C3)[C@@H]2[C@H]1C(=O)N[C@H](C#N)C[C@@H]1CCNC1=O` [Compound 67, (1S,2S,3S,6R,7R)—N-[(1S)-1-cyano-2-[(3S)-2-oxopyrrolidin-3-yl]ethyl]-4-[(2S)-2-(2,2-dichloro-2-fluoroacetamido)-3,3-dimethylbutanoyl]-4-azatricyclo[5.2.1.0^{2,6}]decane-3-carboxamide], the IC50 [1] is reported as ≥ 10000 nM, the EC50 ([2]; read-out: EC50 (class)) is reported as < 100 nM and the IC50 [3] is reported as < 20 nM. For the same compound, the IC50 [4] was > 10000 nM and the EC50 [5] was < 100 nM.
With `C=CC1([C@H](NC(=O)C(F)(F)F)C(=O)N2C[C@H]3[C@@H]([C@H]2C(=O)N[C@H](C#N)C[C@@H]2CCNC2=O)[C@H]2C=C[C@@H]3C2)CCC1` [Compound 68, (1S,3aR,4S,7R,7aS)-N-((S)-1-cyano-2-((S)-2-oxopyrrolidin-3-yl)ethyl)-2-((S)-2-(2,2,2-trifluoroacetamido)-2-(1-vinylcyclobutyl)acetyl)-2,3,3a,4,7,7a-hexahydro-1H-4,7-methanoisoindole-1-carboxamide] the IC50 [1] was ≥ 10000 nM, the EC50 ([2]; read-out: EC50 (class)) was < 100 nM and the IC50 [3] was < 20 nM. The IC50 [4] was > 10000 nM and the EC50 [5] was < 100 nM.
For `CC(C)(C)[C@H](NC(=O)C(F)(F)F)C(=O)N1C[C@H]2[C@H]3CC[C@H](CC3)[C@H]2[C@@H]1C(=O)N[C@H](C#N)C[C@@H]1CCNC1=O` [Compound 71a], the IC50 [1] was ≥ 10000 nM, the EC50 ([2]; read-out: EC50 (bound)) was > 10000 nM and the IC50 [3] was 2000 to 20000 nM. The IC50 [4] was > 10000 nM and the EC50 ([5]; […], numeric bounds given instead of class symbols) was > 10000 nM.
`CC(C)(C)[C@H](NC(=O)C(F)F)C(=O)N1C[C@H]2[C@@H]([C@H]1C(=O)N[C@H](C#N)C[C@@H]1CCNC1=O)[C@H]1C=C[C@@H]2C1` [Compound 72, (1S,3aR,4S,7R,7aS)-N-((S)-1-cyano-2-((S)-2-oxopyrrolidin-3-yl)ethyl)-2-((S)-2-(2,2-difluoroacetamido)-3,3-dimethylbutanoyl)-2,3,3a,4,7,7a-hexahydro-1H-4,7-methanoisoindole-1-carboxamide] was tested, and the IC50 [1] was ≥ 10000 nM, the EC50 ([2]; read-out: EC50 (class)) was < 100 nM and the IC50 [3] was < 20 nM. For the same compound, the IC50 [4] was > 10000 nM and the EC50 [5] was < 100 nM.
`CC(F)(F)C(=O)N[C@H](C(=O)N1C[C@H]2[C@@H]([C@H]1C(=O)N[C@H](C#N)C[C@@H]1CCNC1=O)[C@H]1C=C[C@@H]2C1)C(C)(C)C` [Compound 73] was tested, and the IC50 [1] was ≥ 10000 nM, the EC50 ([2]; read-out: EC50 (class)) was < 100 nM and the IC50 [3] was < 20 nM. For the same compound, the IC50 [4] was > 10000 nM and the EC50 [5] was < 100 nM.
With `CC(C)(F)C(=O)N[C@H](C(=O)N1C[C@H]2[C@@H]([C@H]1C(=O)N[C@H](C#N)C[C@@H]1CCNC1=O)[C@H]1C=C[C@@H]2C1)C(C)(C)C` [Compound 74] the IC50 [1] was ≥ 10000 nM, the EC50 ([2]; read-out: EC50 (class)) was < 100 nM and the IC50 [3] was < 20 nM. For the same compound, the IC50 [4] was > 10000 nM and the EC50 [5] was < 100 nM.
`CC(C)(C)[C@H](NC(=O)C(C)(C)C(F)(F)F)C(=O)N1C[C@H]2[C@@H]([C@H]1C(=O)N[C@H](C#N)C[C@@H]1CCNC1=O)[C@H]1C=C[C@@H]2C1` [Compound 75] was tested, and the IC50 [1] was ≥ 10000 nM, the EC50 ([2]; read-out: EC50 (class)) was 100 to 1000 nM and the IC50 [3] was < 20 nM. The IC50 [4] was > 10000 nM and the EC50 [5] was < 100 nM.
For `CC(C)(C)[C@H](NC(=O)C(F)(F)C(F)(F)F)C(=O)N1C[C@H]2[C@@H]([C@H]1C(=O)N[C@H](C#N)C[C@@H]1CCNC1=O)[C@H]1C=C[C@@H]2C1` [Compound 76, (1S,3aR,4S,7R,7aS)-N-((S)-1-cyano-2-((S)-2-oxopyrrolidin-3-yl)ethyl)-2-((S)-3,3-dimethyl-2-(2,2,3,3,3-pentafluoropropanamido)butanoyl)-2,3,3a,4,7,7a-hexahydro-1H-4,7-methanoisoindole-1-carboxamide], the IC50 [1] was ≥ 10000 nM, the EC50 ([2]; read-out: EC50 (class)) was < 100 nM and the IC50 [3] was < 20 nM. The IC50 [4] was > 10000 nM and the EC50 [5] was < 100 nM.
In the case of `COC(C)(C)C(=O)N[C@H](C(=O)N1C[C@H]2[C@@H]([C@H]1C(=O)N[C@H](C#N)C[C@@H]1CCNC1=O)[C@H]1C=C[C@@H]2C1)C(C)(C)C` [Compound 77], the IC50 [1] is reported as ≥ 10000 nM, the EC50 ([2]; read-out: EC50 (class)) is reported as 1000 to 10000 nM and the IC50 [3] is reported as 20 to 200 nM. The IC50 [4] was > 10000 nM and the EC50 [5] was 100 to 1000 nM.
For `CO[C@](C)(C(=O)N[C@H](C(=O)N1C[C@H]2[C@@H]([C@H]1C(=O)N[C@H](C#N)C[C@@H]1CCNC1=O)[C@H]1C=C[C@@H]2C1)C(C)(C)C)C(F)(F)F` [Compound 78], the IC50 [1] was ≥ 10000 nM, the EC50 ([2]; read-out: EC50 (class)) was 1000 to 10000 nM and the IC50 [3] was 20 to 200 nM. The IC50 [4] was > 10000 nM and the EC50 [5] was 100 to 1000 nM.
With `COCC(C)(C)[C@H](NC(=O)C(F)(F)C(F)(F)F)C(=O)N1C[C@H]2[C@@H]([C@H]1C(=O)N[C@H](C#N)C[C@@H]1CCNC1=O)[C@H]1C=C[C@@H]2C1` [Compound 100, (1S,3aR,4S,7R,7aS)-N-((S)-1-cyano-2-((S)-2-oxopyrrolidin-3-yl)ethyl)-2-((S)-4-methoxy-3,3-dimethyl-2-(2,2,3,3,3-pentafluoropropanamido)butanoyl)-2,3,3a,4,7,7a-hexahydro-1H-4,7-methanoisoindole-1-carboxamide] the IC50 [1] was ≥ 10000 nM, the EC50 ([2]; read-out: EC50 (class)) was < 100 nM and the IC50 [3] was < 20 nM. The IC50 [4] was > 500 nM and the EC50 [5] was < 100 nM.
In the case of `CC(C)(C)[C@H](NC(=O)C(F)(F)F)C(=O)N1C[C@H]2[C@@H]([C@H]1C(=O)N[C@H](C#N)C[C@@H]1Oc3ccncc3NC1=O)[C@H]1C=C[C@@H]2C1` [Compound 109, (1S,3aR,4S,7R,7aS)-N-((S)-1-cyano-2-((S)-3-oxo-3,4-dihydro-2H-pyrido[4,3-b][1,4]oxazin-2-yl)ethyl)-2-((S)-3,3-dimethyl-2-(2,2,2-trifluoroacetamido)butanoyl)-2,3,3a,4,7,7a-hexahydro-1H-4,7-methanoisoindole-1-carboxamide], the IC50 [1] is reported as ≥ 10000 nM, the EC50 ([2]; read-out: EC50 (class)) is reported as < 100 nM and the IC50 [3] is reported as < 20 nM. The IC50 [4] was > 500 nM and the EC50 [5] was < 100 nM.
`CC(C)(C)[C@H](NC(=O)C(F)(F)F)C(=O)N1C[C@H]2[C@@H]([C@H]1C(=O)N[C@H](C#N)C[C@@H]1OCCNC1=O)[C@H]1C=C[C@@H]2C1` [Compound 114, (1S,3aR,4S,7R,7aS)-N-((S)-1-cyano-2-((S)-3-oxomorpholin-2-yl)ethyl)-2-((S)-3,3-dimethyl-2-(2,2,2-trifluoroacetamido)butanoyl)-2,3,3a,4,7,7a-hexahydro-1H-4,7-methanoisoindole-1-carboxamide] was tested, and the IC50 [1] was ≥ 10000 nM, the EC50 ([2]; read-out: EC50 (class)) was < 100 nM and the IC50 [3] was < 20 nM. For the same compound, the IC50 [4] was > 500 nM and the EC50 [5] was < 100 nM.
In the case of `CC(C)(C)[C@H](NC(=O)C(F)(F)Cl)C(=O)N1C[C@H]2[C@@H]([C@H]1C(=O)N[C@H](C#N)C[C@@H]1CCNC1=O)[C@H]1C=C[C@@H]2C1(F)F` [Compound 128, (1R,2R,3S,6S,7S)-4-[(2S)-2-(2-chloro-2,2-difluoroacetamido)-3,3-dimethylbutanoyl]-N-[(1S)-1-cyano-2-[(3S)-2-oxopyrrolidin-3-yl]ethyl]-10,10-difluoro-4-azatricyclo[5.2.1.0^{2,6}]dec-8-ene-3-carboxamide], the IC50 [1] is reported as ≥ 10000 nM, the EC50 ([2]; read-out: EC50 (class)) is reported as < 100 nM and the IC50 [3] is reported as < 20 nM. The IC50 [4] was > 500 nM and the EC50 [5] was < 100 nM.
